Results from patent publication US20220362174A1, “Use of R-enantiomer Beta2-agonists for prevent and treatment of pulmonary inflammation and inflammatory remodeling for reduced adverse effects” (priority 2019, published 2022).
Entries after “also recorded” stand apart in the source; their conditions may differ.

Key:
[1] = system: macrophages from the peritoneal fluid; assay: LPS-induced proliferation and polarization of macrophages from the peritoneal fluid (sepsis); assay type: in vivo; conditions: in comparison of sepsis condition
Source text: Macrophage activation and proliferation was considered to be the key step of initiation and development of sepsis. In one embodiment, LPS (PAMPs from bacteria) induced a proliferation and polarization of macrophages from the peritoneal fluid. […] These inhibitory effects can be blocked by using specific β2-recepter blocker.

p38 MAPK = assay: Western blot of lung tissue: p38 MAPK phosphorylation; assay type: in vivo, mice; conditions: vs OVA group
Description: (§1) OVA sensitized/challenged asthma model Mice were sensitized and challenged with ovalbumin (OVA) or normal saline. Briefly, mice were sensitized by intraperitoneal (i.p.) injection of 0.2 mL of 2% aluminum hydroxide (ALUM) gel containing 10 μg of OVA antigen on days 0 and 14. On days 21, 22 and 23, the mice were challenged with 1% OVA in saline (0.01 g/mL) for 20 min via. a nebulizer (PART Turbo boy). On day 26, a 20 min nebulized OVA challenge with 5% OVA in saline (0.05 g/mL) was conducted. The control group received 0.2 mL of saline with 2% ALUM administered intraperitoneally on days 0 and 14 before receiving 20 min nebulized normal saline without OVA on days 21, 22, 23 and 26.
Total protein from lung tissue was extracted according to the guidelines of manufacturer (Beyotime, China) and the concentrations were determined by BCA assay (Pierce). Primary antibodies against p38 MAPK (CST #8690), p-p38 MAPK (Thr180/Tyr182, CST #4511), NF-κB p65 (GeneTex #GTX102090), p-NF-κB p65 (S536, CST #3033) and GAPDH (Affinity #AF7021) as a standard were purchased and used.

[2] = system: OVA-sensitized/OVA-challenged mice; assay: Airway responsiveness to methacholine by whole-body plethysmography (Penh) in OVA sensitized/challenged asthma model; assay type: in vivo
Description: as §1
In vivo airway responsiveness to methacholine (Mch) was assessed on day 28 in conscious, freely moving, spontaneously breathing mice by a whole-body plethysmography (Buxco Electronics Inc.). Mice were challenged with aerosolized saline or increasing concentrations of Mch (2, 10, 20 mg/mL) administered by an ultrasonic nebulizer for 2 min. Before Mch challenge, a 20 μL drug aerosol or saline was given to the mice because of the short-acting bronchodilating effect of terbutaline. The degree of bronchoconstriction was expressed as enhanced pause (Penh), a calculated dimensionless value that correlates with measurement of airway resistance, impedance, and intrapleural pressure. Penh values were recorded and averaged for 4 min after each nebulization challenge.

[3] = system: OVA-sensitized/OVA-challenged mice; assay: Whole blood analysis and eosinophils counts in BAL fluid; assay type: in vivo; conditions: OVA asthma mice after repeated inhalation
Description: as §1
After Methacholine challenge, mice were anesthetized, blood was collected for hematology analysis. Part of the collected blood was transferred to a heparinized Eppendorf tube, gently mixed and centrifuged under 845×g at 4° C. for 10 min to isolate plasma specimen for further analysis. Broncho alveolar lavage (BAL) was performed on the right lung using 0.3 mL of phosphate buffered saline (PBS) for four times. The saline was instilled into the lungs and allowed to equilibrate for 30 s before recovery, after centrifugation supernatants were stored at −80° C. for further cytokines analysis while cell pellet was suspended in 0.5 ml PBS and the eosinophils counts were performed using Wright's stain. Then all the organs (liver, right lung lobe, spleen, kidneys, heart, brain) were excised surgically and washed totally with ice-cold PBS to clear the blood and then blotted dry with filter paper. These tissue specimens were then accurately weighted and stored at −80° C. for detecting the drug distribution by LC-MS/MS. White blood cell (WBC) counts and differential WBC counts were analyzed using a ProCyte Dx Hematology Analyzer (IDEXX Laboratories) in 4 h after blood collection.

[4] = system: OVA-sensitized/OVA-challenged mice; assay: Lung histopathology (H&E, PAS, Masson) after R-, S-, rac-terbutaline; assay type: in vivo
Description: as §1
(§2) Left lung tissue was obtained for histopathology and fixed in 10% formalin for 24 h, followed by paraffin-embedded and then were sectioned at 4 μm for routine staining with hematoxylin and eosin (H&E, Solarbio, Beijing, China), or with periodic acid-Schiff (PAS, Solarbio, Beijing, China), or submitted to Masson's trichrome staining (Baso, Zhuhai, China). Images of the stained lung sections were obtained by an Axisplus image-capturing system (Zeiss, Germany) and then a minimum of 3 bronchi (luminal diameter, 150-500 μm) were analyzed per mice for various parameters using an image analyzing computer system (IPP) by pathologists blinded to grouping. Histological score, airway smooth muscle thickness, PAS score (goblet cells hyperplasia), and collagen deposition were evaluated by a semi-quantitative scoring method.

[5] = system: LPS-induced RAW264.7 cells; assay: M1/M2 macrophage polarization by flow cytometry; assay type: cell-based; conditions: pretreated prior to LPS 100 ng/mL; basal 24.7%, LPS 59.2%; (R)-salbutamol 10 μM
Description: (§3) Macrophages were treated without or with (R)/(S)-salbutamol for 1 h prior to LPS stimulation and subsequently incubated for 12 h. […] The fluorescence of the oxidized product (2′,7′-dichlorofluorescein, DCF) was assessed using an LSM710 Laser Scanning Confocal Microscope (Carl Zeiss, Jena, Germany). The concentration of NO in the culture supernatant was measured by assaying the concentrations of nitrite (a stable NO breakdown product) using the Griess assay (Beyotime, Shanghai, China), according to the manufacturer's instructions. The intracellular NO level was detected using the NO-sensitive fluorescence probe DAF-FM DA (Sigma, St. Louis, Mo., USA) (24). Cells were labeled with DAF-FM DA (10 μM) at 37° C. for 30 min and were gently washed three times with PBS. Fluorescence was detected using a LSM710 Laser Scanning Confocal Microscope (Scale bars, 100 μm) (Carl Zeiss, Jena, Germany).
Macrophages M1 (F4/80+/CD11c+/CD206−) and M2 (F4/80+/CD11c−/CD206+) polarization were analyzed using flow cytometry.

[6] = system: LPS-induced macrophage RAW264.7 cells; assay: M1 macrophage cytokines (TNF-α, IL-1β, MCP-1) by ELISA; assay type: cell-based; conditions: LPS challenge
Description: as §3
To confirm that M1 polarization was predominant over M2 polarization after stimulation with LPS, the levels of typical M1 macrophage cytokines (i.e., TNF-α, IL-1β and MCP-1) were quantified using ELISA; these cytokines are mainly synthesized by macrophages and play an important role in inflammatory diseases (35,36). This invention disclosed that TNF-α […] from 2.62-fold to 0.75-fold of control levels following LPS stimulation (FIG. 8A). IL-1β is a hallmark of many chronic inflammatory diseases in humans and is reportedly associated with acute phase reactions (35,37). […] We conclude that LPS is likely to lead to M1 polarization but not M2 polarization.

[7] = system: LPS-induced RAW264.7 cells; assay: Intracellular ROS (DCFH-DA); assay type: cell-based; conditions: LPS-induced cells
Description: as §3
LPS can promote cell apoptosis through mitochondrial dysfunction, and mitochondria are the major source of ROS.

OVA induced asthma mice [8] = assay: Combination therapy of ipratropium with RS-, R- and S-salbutamol: airway resistance in response to methacholine; assay type: in vivo; conditions: for increase in airway resistance after treatment: response to methacholine, OVA + Saline 445%
Description: OVA sensitized/challenged asthma model Mice were sensitized and challenged with ovalbumin (OVA) or normal saline. […] On days 21, 22 and 23, the mice were challenged with 1% OVA in saline (0.01 g/mL) for 20 min via. a nebulizer (PART Turbo boy). […] In vivo airway responsiveness to methacholine (Mch) was assessed on day 28 in conscious, freely moving, spontaneously breathing mice by a whole-body plethysmography (Buxco Electronics Inc.). […] Before Mch challenge, a 20 μL drug aerosol or saline was given to the mice because of the short-acting bronchodilating effect of terbutaline. The degree of bronchoconstriction was expressed as enhanced pause (Penh), a calculated dimensionless value that correlates with measurement of airway resistance, impedance, and intrapleural pressure. […] Methods used were similar as mentioned above. Nebulized aerosol of saline, Methacholine 2 mg/ml (low dose) or 10 mg/ml (high dose) were given via inhalation to OVA induced asthma mice.

OVA induced asthma mice [9] = assay: Combination therapy of ipratropium with R- and S-salbutamol: lung histopathology (Masson, PAS); assay type: in vivo
Description: as §2
Methods used were similar as mentioned above. Nebulized aerosol of saline, Methacholine 2 mg/ml (low dose) or 10 mg/ml (high dose) were given via inhalation to OVA induced asthma mice.

BALB/c mice [10] = assay: Survival study after LPS challenge (sepsis); assay type: in vivo; conditions: for Percent of death after LPS challenges, 12 h: Saline + LPS 0; for Percent of death after LPS challenges, 24 h: Saline + LPS 36.4; for Percent of death after LPS challenges, 36 h: Saline + LPS 72.7; for Percent of death after LPS challenges, 48 h / Percent of death after LPS challenges, 72 h / Percent of death after LPS challenges, 144 h: Saline + LPS 90.9
Description: Treatment were given intraperitoneally for 3 consecutive days. One hour after the 3rd day treatments, LPS (15 mg/kg) was administered intraperitoneally. The animals were monitored. Survival rate was then recorded every 12 h for 144 hours.

[11] = system: LPS-induced RAW264.7 cells; assay: NO production (DAF-FM DA probe, Griess assay); assay type: cell-based; conditions: LPS-induced cells
Description: as §3
In addition, the concentration of NO in the culture supernatant was measured by assaying the concentrations of nitrite (a stable NO breakdown product) using the Griess assay. […] To investigate (R)-salbutamol role on the level of iNOS, the mRNA and protein levels of iNOS were determined.

BALB/c mice [12] = assay: Lung function measurements 6 hours after LPS (Buxco); assay type: in vivo; conditions: 5.0 mg/kg
Description: Methods: Survival study: […] Treatment were given intraperitoneally for 3 consecutive days. […] The animals were monitored. Survival rate was then recorded every 12 h for 144 hours. The lung functions were measured with using Buxco system (Buxco Electronics, USA). After a brief acclimation to the chamber, the mice received an initial baseline challenge of saline. Measures were made at 6 hours after administration of LPS, including tidal volume and Penh which is an indication of airway resistance.

OCc1cc([C@H](O)CNCCCCCCOCCCCc2ccccc2)ccc1O [(S)-salmeterol, reference compound]
polarized M1 macrophages or M2 macrophages [1]: further increased

CC(C)(C)NCC(O)c1cc(O)cc(O)c1 (racemic) [rac-terbutaline, terbutaline]
p38 MAPK phosphorylation (ratio of phosphorylated to total p38 MAPK) (p38 MAPK): much less effects
airway bronchoconstriction/hyperactivity (Penh) in response to increased doses of Mch ([2]; Mch 2, 10, 20 mg/mL aerosol, rac-ter at double dose of R-ter): much less effect
baseline Penh value (baseline airway reactivity) ([2]; exposure to saline, after 7 days inhalation pretreatment, OVA group 0.80±0.12, Control group 0.55±0.08, rac-terbutaline at double molar amount): significantly reduce
per cent of eosinophil counts in blood and BALF ([3]; listed as RS(rac)-terbutaline): significantly higher
per cent of eosinophil counts in blood and BALF ([3]; listed as racemic terbutaline): less but similar effects as S-terbutaline
PAS stain of lung tissues: inflammatory and histopathological changes, collagen deposition ([4]; Example 3, vs model): significant less beneficial effects
degree of inflammatory cell infiltration (H&E, histological score) ([4]; rac-terbutaline at double dose): ameliorated
PAS and Masson staining: subepithelial matrix glycoproteins, goblet cell hyperplasia, collagen deposition ([4]; vs OVA group): much less or not effective

CC(C)(C)NC[C@@H](O)c1ccc(O)c(CO)c1 [S-salbutamol, (S)-salbutamol, reference compound]
prevalence of M1 macrophages (F4/80+/CD11c+/CD206−) [5]: facilitated macrophage polarization
release and expression of cytokines in LPS induced M1 macrophages (in words) [6]: had the opposite effects
release and expression of cytokines in LPS induced M1 macrophages (in words) ([6]; listed as S-albuterol): increased the release of cytokines
production/levels of ROS (in words) [7]: increased
increase in airway resistant in response to methacholine (in words) (OVA induced asthma mice [8]): much greater; also recorded: further enhance the airway response to methacholine
increase in airway resistance after treatment (OVA induced asthma mice [8]): 486%
PAS staining: goblet cell hyperplasia, mucus over secretion, airway edema (OVA induced asthma mice [9]; vs OVA model): further worsen the inflammatory condition
Masson staining: collagen deposition, wall thickness of bronchiole and vascular vessels (OVA induced asthma mice [9]; vs ova (model) group): further worsens the inflammatory conditions and further increased the wall thickness
Percent of death after LPS challenges, 12 h (BALB/c mice [10]; 0.5 mg/kg + LPS): 0%
Percent of death after LPS challenges, 24 h (BALB/c mice [10]; 0.5 mg/kg + LPS): 36.4%
Percent of death after LPS challenges, 36 h (BALB/c mice [10]; 0.5 mg/kg + LPS): 90.9%
Percent of death after LPS challenges, 48 h (BALB/c mice [10]; 0.5 mg/kg + LPS): 90.9%
Percent of death after LPS challenges, 72 h (BALB/c mice [10]; 0.5 mg/kg + LPS): 90.9%
Percent of death after LPS challenges, 144 h (BALB/c mice [10]; 0.5 mg/kg + LPS): 90.9%
rate of mortality/death after LPS challenge (in words) (BALB/c mice [10]; in comparison of LPS challenged group without pretreatment (mortality 90.9%)): same rate of death at 48 hours; also recorded: higher rate of death at 36 h
production/levels of NO (in words) [11]: increased

C[C@@H]1C[C@H]2[C@@H]3CCC4=CC(=O)C=C[C@]4(C)[C@@]3(F)[C@@H](O)C[C@]2(C)[C@@]1(O)C(=O)CO [Dexamethasone, dexamethasone, reference compound]
Percent of death after LPS challenges, 12 h (BALB/c mice [10]; 5.0 mg/kg + LPS): 0%
Percent of death after LPS challenges, 24 h (BALB/c mice [10]; 5.0 mg/kg + LPS): 90.9%
Percent of death after LPS challenges, 36 h (BALB/c mice [10]; 5.0 mg/kg + LPS): 90.9%
Percent of death after LPS challenges, 48 h (BALB/c mice [10]; 5.0 mg/kg + LPS): 100%
Percent of death after LPS challenges, 72 h (BALB/c mice [10]; 5.0 mg/kg + LPS): 100%
Percent of death after LPS challenges, 144 h (BALB/c mice [10]; 5.0 mg/kg + LPS): 100%
Tidal volume (BALB/c mice [12]; LPS + saline 0.13 ± 0.03): 0.15 ± 0.04 mL
Penh (BALB/c mice [12]; LPS + saline 1.31 ± 0.40): 1.01 ± 0.46

CC(C)(C)NCC(O)c1ccc(O)c(CO)c1 (racemic) [RS salbutamol, salbutamol]
increase in airway resistance after treatment (OVA induced asthma mice [8]): 214%
